The values below come from patent publication US12448369B2 (Edgewise Therapeutics, Inc., priority 2023, dated 2025).

The test system of assay [1] is Rabbit Psoas myofibrils (skeletal myosin ATPase). As to the kind of experiment: Myofibril ATPase assay, rabbit psoas (skeletal) myofibrils. The class given is biochemical. Particulars: rabbit psoas myofibrils. In outline:
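Myofibrils homogenized in Triton X-100 buffer were assayed in pH 7.0 PIPES with defined Ca2+/EGTA. Myosin-driven ADP formation was coupled to NADH oxidation, with depletion monitored at 340 nm. Each value is the concentration that lowers activity to 75% of vehicle or, for activators, raises it to 125%.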

Assay [2] concerns Porcine atria myofibrils (atrial myosin ATPase). As to the kind of experiment: Myofibril ATPase assay, porcine atria myofibrils. The class given is biochemical. Particulars: porcine atria myofibrils. A digest of the protocol: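 Values are Y75 (concentration cutting ATPase activity to 75% of vehicle) or Y125 (raising it to 125%), taken from 4-parameter logistic fits. Rates come from NADH disappearance at 340 nm in a PK/LDH-coupled assay with porcine atria myofibrils.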

Assay [3] concerns the target T1, Porcine ventricle myofibrils (ventricular myosin ATPase) (Sus scrofa, UniProt P79293).
T1 construct: Myofibrils from porcine cardiac muscle was isolated from the left ventricle of Yucatan minipigs; tissue Exemplar Genetics; host or cells: left ventricle of Yucatan minipigs, myofibrils prepared in house
As to the kind of experiment: Myofibril ATPase assay, porcine ventricle myofibrils. The format is biochemical, porcine (Yucatan minipigs). To be noted: porcine ventricle myofibrils. In outline:
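ATPase activity of porcine left-ventricle myofibrils (Yucatan minipig) was followed through PK-LDH coupling as NADH loss at 340 nm, read every 1.5-2 min for 75 min. Slopes were normalised to vehicle wells and fitted to a 4-parameter logistic model. Values are Y75, the concentration giving a 25% drop in activity, or Y125 for activators.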

The next assay relates to SD rats. In words: Echocardiography of systolic cardiac performance (HR, FS, LV volumes, SWT) after a single oral dose. The class given is in vivo. To be noted: Rattus norvegicus, single dose 10 mg/kg PO, ~2 hrs post-dosing, isoflurane-anesthetized. As to the method: Example 2. Echocardiogram Data
Experiments were performed to evaluate the in vivo ability of the compounds of the disclosure to modulate systolic cardiac performance. Non-invasively echocardiography was used to assess cardiac indicators in isoflurane-anesthetized SD rats. A set of conscious rats were treated with either vehicle control (0 mg/kg PO; n=78) or a single dose of a test compound (10 mg/kg PO, n=2 to 6/compound) via oral gavage. Cardiac function/geometry were recorded at two separate time-points/days: once prior to dosing (e.g., at baseline, day −2) and at ˜2 hrs post-dosing (day 0). In these experiments, heart rate (HR), echocardiography-derived indices of left-ventricular systolic performance, as well as dimensions/volumes were measured using a high-frequency transducer and parasternal long-axis transthoracic views (Vevo3100, VisualSonic). LV fractional shortening (FS), an index of systolic function, was defined as the end-diastole normalized change in internal dimensions divided by the difference in diameter (LVid) of the left ventricle between end-systole (LVids) and end-diastole (LVidd) (e.g., FS=100·[LVidd−LVids]/LVidd). LV volumes were derived using the Teichholz formula (LVV=[7·LVid^3]/[2.4+LVid]). In addition, a systolic wall-thickening index (SWT) was also evaluated. SWT is defined as the relative ratio (end-diastole normalized) of left-ventricular (anterior and posterior) wall-thickness change during systole; e.g., SWT={[(anterior LV wall thickness in systole−anterior LV wall thickness in diastole)]+[(posterior LV wall thickness in systole−posterior LV wall thickness in diastole)]}/{2*diastolic thickness}. In all cases, blood samples were taken (via either tail-vein micro-sampling or cardiac-puncture) at the time of each echocardiographic examination in order to establish pharmacokinetic (PK)/pharmacodynamics (PD) relationships.

[4] abbreviates: Y75 value (75% activity relative to no compound).
Setting [5] is: EDV change vs vehicle, read-out: EDV % vs. VEH.
Setting [6] is: LV fractional shortening change vs vehicle, read-out: FS % vs. VEH.
[7] abbreviates: SWT change vs vehicle, read-out: SWT % vs. VEH.
[8] abbreviates: heart rate change vs vehicle, read-out: HR % vs. VEH.

Like-named read-outs stand apart in the source and are kept apart here.

T1 sequence (P79293 whole entry): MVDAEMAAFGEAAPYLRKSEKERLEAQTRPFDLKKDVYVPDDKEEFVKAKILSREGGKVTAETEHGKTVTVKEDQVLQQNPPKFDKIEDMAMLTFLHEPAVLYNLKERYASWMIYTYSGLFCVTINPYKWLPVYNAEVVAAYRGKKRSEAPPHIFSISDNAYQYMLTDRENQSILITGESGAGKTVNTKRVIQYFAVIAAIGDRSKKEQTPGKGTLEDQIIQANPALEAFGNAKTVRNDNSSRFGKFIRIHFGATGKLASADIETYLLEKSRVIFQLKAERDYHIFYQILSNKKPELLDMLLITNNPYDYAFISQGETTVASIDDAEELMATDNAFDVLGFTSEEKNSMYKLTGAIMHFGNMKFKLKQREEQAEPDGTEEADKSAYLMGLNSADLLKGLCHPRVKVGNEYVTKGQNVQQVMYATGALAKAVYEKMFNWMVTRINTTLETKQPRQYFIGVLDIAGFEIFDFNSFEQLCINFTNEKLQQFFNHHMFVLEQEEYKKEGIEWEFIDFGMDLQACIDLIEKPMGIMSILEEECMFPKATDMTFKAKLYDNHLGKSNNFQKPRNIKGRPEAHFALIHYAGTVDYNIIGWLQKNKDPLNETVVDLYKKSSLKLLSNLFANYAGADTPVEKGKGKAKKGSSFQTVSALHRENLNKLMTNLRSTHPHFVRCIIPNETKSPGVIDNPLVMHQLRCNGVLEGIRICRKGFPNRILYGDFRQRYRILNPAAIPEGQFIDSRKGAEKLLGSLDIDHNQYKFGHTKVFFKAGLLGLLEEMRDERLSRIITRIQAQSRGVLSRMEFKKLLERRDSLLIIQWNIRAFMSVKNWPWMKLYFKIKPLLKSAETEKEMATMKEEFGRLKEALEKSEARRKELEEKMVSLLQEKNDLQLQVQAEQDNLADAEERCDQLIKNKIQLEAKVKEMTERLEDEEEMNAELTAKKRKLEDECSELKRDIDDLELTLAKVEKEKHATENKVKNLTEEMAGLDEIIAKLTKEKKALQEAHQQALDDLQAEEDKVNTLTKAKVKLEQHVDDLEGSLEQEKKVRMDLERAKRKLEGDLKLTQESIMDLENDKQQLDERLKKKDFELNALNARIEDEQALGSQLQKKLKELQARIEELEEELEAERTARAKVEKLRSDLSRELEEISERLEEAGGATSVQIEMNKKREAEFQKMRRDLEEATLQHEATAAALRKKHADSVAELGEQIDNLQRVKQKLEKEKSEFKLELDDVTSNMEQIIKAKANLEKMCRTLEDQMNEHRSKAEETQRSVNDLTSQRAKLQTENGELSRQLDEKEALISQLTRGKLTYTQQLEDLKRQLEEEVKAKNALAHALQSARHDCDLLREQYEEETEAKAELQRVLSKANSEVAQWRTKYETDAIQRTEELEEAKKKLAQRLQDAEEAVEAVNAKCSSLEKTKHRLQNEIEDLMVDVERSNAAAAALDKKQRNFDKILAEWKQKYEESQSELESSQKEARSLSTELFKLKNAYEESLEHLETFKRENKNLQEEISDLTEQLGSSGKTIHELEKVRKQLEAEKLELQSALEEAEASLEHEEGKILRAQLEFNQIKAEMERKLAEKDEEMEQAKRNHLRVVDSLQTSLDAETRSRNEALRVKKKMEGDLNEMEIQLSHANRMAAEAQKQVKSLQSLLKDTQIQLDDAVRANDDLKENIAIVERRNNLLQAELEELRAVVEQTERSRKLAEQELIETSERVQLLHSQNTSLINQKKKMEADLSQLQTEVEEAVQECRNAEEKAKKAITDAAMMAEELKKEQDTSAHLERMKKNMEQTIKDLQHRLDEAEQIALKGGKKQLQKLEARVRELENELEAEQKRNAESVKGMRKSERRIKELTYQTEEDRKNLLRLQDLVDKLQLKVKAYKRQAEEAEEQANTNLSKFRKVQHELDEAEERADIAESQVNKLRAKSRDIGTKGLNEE

With `Cc1nccc2[nH]c(=O)c(CC(=O)N[C@@H](C)c3ccc(C#N)cc3F)c(C)c12` (single isomer, unassigned) [compound 256], the “Skeletal EC25” value in assay [1] (Y75 value) was determined as 20 nM. The “Atrial EC25” value in assay [2] (setting [4]) came out at 80 nM. Moreover, the “Ventricular EC25” value in assay [3] (Y75 value) was 190 nM. The change in vivo at 10 mg/kg in the assay with SD rats (setting [5]) is 1 to 20%; in the assay on SD rats (setting [6]) it was 1 to 20%; in the assay on SD rats (setting [7]), 1 to 20%; with SD rats (setting [8]), 1 to 10%.
On to `C[C@H](NC(=O)Cc1cc2c(F)c(F)ccc2[nH]c1=O)c1ncc(C#N)cc1F` [compound 36], for which the “Skeletal EC25” value in assay [1] (Y75 value (no ‡ mark)) was 10 nM. The “Atrial EC25” value in assay [2] (Y75 value (no ‡ mark)) is 20 nM. Further, the “Ventricular EC25” value in assay [3] (Y75 value (no ‡ mark)) came out at 50 nM. Also, the change in vivo at 10 mg/kg with SD rats (setting [5]) was 1 to 10%; in the assay with SD rats (setting [6]), 41 to 60%; in the assay on SD rats (setting [7]), 21 to 40%; in the assay with SD rats (setting [8]), 11 to 20%.
Take `C[C@@H](NC(=O)Cc1cc2c(F)c(F)ccc2[nH]c1=O)c1ncc(C#N)cc1F` [compound 35]: the “Skeletal EC25” value in assay [1] (Y75 value (no ‡ mark)) worked out at 90 nM. Further, in assay [2] (Y75 value (no ‡ mark)), the “Atrial EC25” value is 80 nM. Besides, the “Ventricular EC25” value in assay [3] (Y75 value (no ‡ mark)) turned out to be 150 nM. Further, the change in vivo at 10 mg/kg is 11 to 20% with SD rats (setting [5]), 1 to 20% in the assay with SD rats (setting [6]), 0% with SD rats (setting [7]) and 1 to 10% in the assay with SD rats (setting [8]).
For the compound `Cc1c(CC(=O)N[C@@H](C)c2ccc(F)cc2F)c(=O)[nH]c2ccnc(C#N)c12` [compound 355, 2-(5-cyano-4-methyl-2-oxo-1H-1,6-naphthyridin-3-yl)-N-[(1S)-1-(2,4-difluorophenyl)ethyl]acetamide], the “Skeletal EC25” value in assay [1] (Y75 value) amounted to 10 nM. The “Atrial EC25” value in assay [2] (setting [4]) stood at 70 nM. In addition, the “Ventricular EC25” value in assay [3] (Y75 value) was 140 nM. The change in vivo at 10 mg/kg with SD rats (setting [5]) was 1 to 10%; with SD rats (setting [6]), 11 to 20%; with SD rats (setting [7]), 1 to 10%; with SD rats (setting [8]) it was 1 to 10%.
Consider `C[C@@H](NC(=O)Cc1cc2c(F)c(F)ccc2[nH]c1=O)c1ncc(C#N)cn1` (single isomer, unassigned) [compound 2071], for which, in assay [1] (Y75 value (no ‡ mark)), the “Skeletal EC25” value is 2930 nM. Further, the “Atrial EC25” value in assay [2] (Y75 value (no ‡ mark)) was found to be 1070 nM. Further, the “Ventricular EC25” value in assay [3] (Y75 value (no ‡ mark)) was determined as 2620 nM. For the same compound, the change in vivo at 10 mg/kg in the assay with SD rats (setting [5]) is 1 to 20%; in the assay with SD rats (setting [6]), 1 to 20%; in the assay with SD rats (setting [7]), 11 to 20%; with SD rats (setting [8]), 1 to 20%.
Regarding `Cc1c(CC(=O)N[C@H](C)c2ncc(C#N)cc2F)c(=O)[nH]c2ccc(F)cc12` [compound 1106], the “Skeletal EC25” value in assay [1] (Y75 value (no ‡ mark)) was 370 nM. For the same compound, the “Atrial EC25” value in assay [2] (Y75 value (no ‡ mark)) is 540 nM. In assay [3] (Y75 value (no ‡ mark)), the “Ventricular EC25” value amounted to 490 nM. Moreover, the change in vivo at 10 mg/kg in the assay on SD rats (setting [5]) fell in the range of 1 to 10%; in the assay on SD rats (setting [6]), 21 to 40%; in the assay on SD rats (setting [7]) it was 21 to 40%; in the assay with SD rats (setting [8]), 1 to 10%.
`Cc1c(CC(=O)N[C@H](C)c2ncc(C#N)cc2F)c(=O)[nH]c2ccc(F)c(F)c12` [compound 41]: the “Skeletal EC25” value in assay [1] (Y75 value (no ‡ mark)) was found to be 70 nM. The “Atrial EC25” value in assay [2] (Y75 value (no ‡ mark)) was determined as 130 nM. In addition, the “Ventricular EC25” value in assay [3] (Y75 value (no ‡ mark)) turned out to be 450 nM. Further, the change in vivo at 10 mg/kg in the assay with SD rats (setting [5]) is 1 to 20%; in the assay on SD rats (setting [6]) it was 1 to 20%; in the assay with SD rats (setting [7]), at least 21%; in the assay on SD rats (setting [8]), 1 to 20%.
For the compound `Cc1c(CC(=O)N[C@@H](C)c2ccc(F)cc2F)c(=O)[nH]c2ccc(F)c(C#N)c12` [compound 83], the “Skeletal EC25” value in assay [1] (Y75 value (no ‡ mark)) amounted to 10 nM. For the same compound, the “Atrial EC25” value in assay [2] (Y75 value (no ‡ mark)) stood at 40 nM. The “Ventricular EC25” value in assay [3] (Y75 value (no ‡ mark)) turned out to be 100 nM. The change in vivo at 10 mg/kg in the assay on SD rats (setting [5]) lay in the range of 1 to 20%; in the assay on SD rats (setting [6]), 11 to 20%; in the assay on SD rats (setting [7]) it was 11 to 20%; in the assay on SD rats (setting [8]), 1 to 10%.
Consider `Cc1c(CC(=O)N[C@H](C)c2ncc(C#N)cn2)c(=O)[nH]c2ccc(F)c(F)c12` [compound 1123, (R)—N-(1-(5-cyanopyrimidin-2-yl)ethyl)-2-(5,6-difluoro-4-methyl-2-oxo-1,2-dihydroquinolin-3-yl)acetamide], for which, in assay [1] (Y75 value (no ‡ mark)), the “Skeletal EC25” value is 580 nM. Moreover, the “Atrial EC25” value in assay [2] (Y75 value (no ‡ mark)) is 480 nM. In assay [3] (Y75 value (no ‡ mark)), the “Ventricular EC25” value was 1370 nM. Besides, the change in vivo at 10 mg/kg lay within 21 to 40% in the assay on SD rats (setting [5]), 21 to 40% in the assay with SD rats (setting [6]), 41 to 60% in the assay with SD rats (setting [7]) and 1 to 10% in the assay on SD rats (setting [8]).
Take `Cc1c(CC(=O)N[C@@H](C)c2ncc(C#N)cn2)c(=O)[nH]c2ccc(F)c(F)c12` [compound 1124, (S)—N-(1-(5-cyanopyrimidin-2-yl)ethyl)-2-(5,6-difluoro-4-methyl-2-oxo-1,2-dihydroquinolin-3-yl)acetamide]: in assay [1] (Y75 value (no ‡ mark)), the “Skeletal EC25” value was found to be 140 nM. In addition, the “Atrial EC25” value in assay [2] (Y75 value (no ‡ mark)) amounted to 70 nM. Further, the “Ventricular EC25” value in assay [3] (Y75 value (no ‡ mark)) was found to be 340 nM. The change in vivo at 10 mg/kg in the assay with SD rats (setting [5]) was 1 to 10%; with SD rats (setting [6]) it was 21 to 40%; in the assay with SD rats (setting [7]), 1 to 20%; in the assay with SD rats (setting [8]) it was 1 to 10%.
`Cc1c(CC(=O)N[C@H](C)c2ncc(C#N)cc2F)c(=O)[nH]c2ccc(F)c(C3CC3)c12` [compound 27]: the “Skeletal EC25” value in assay [1] (Y75 value (no ‡ mark)) was 140 nM. The “Atrial EC25” value in assay [2] (Y75 value (no ‡ mark)) was found to be 230 nM. The “Ventricular EC25” value in assay [3] (Y75 value (no ‡ mark)) came out at 240 nM. Also, the change in vivo at 10 mg/kg in the assay with SD rats (setting [5]) is 11 to 20%; with SD rats (setting [6]), 11 to 20%; in the assay with SD rats (setting [7]), at least 21%; with SD rats (setting [8]), 1 to 20%.
`Cc1c(CC(=O)N[C@@H](C)c2ncc(C#N)cc2F)c(=O)[nH]c2ccc(F)c(F)c12` [compound 42]: the “Skeletal EC25” value in assay [1] (Y75 value (no ‡ mark)) turned out to be 10 nM. Moreover, in assay [2] (Y75 value (no ‡ mark)), the “Atrial EC25” value worked out at 80 nM. Further, the “Ventricular EC25” value in assay [3] (Y75 value (no ‡ mark)) came to 40 nM. The change in vivo at 10 mg/kg in the assay on SD rats (setting [5]) was 1 to 10%; in the assay on SD rats (setting [6]) it was 21 to 40%; in the assay with SD rats (setting [7]), at least 21%; with SD rats (setting [8]), 0%.
For `Cc1c(CC(=O)N[C@@H](C)c2cnc(C#N)cn2)c(=O)[nH]c2ccc(F)c(F)c12` [compound 1146, (S)—N-(1-(5-cyanopyrazin-2-yl)ethyl)-2-(5,6-difluoro-4-methyl-2-oxo-1,2-dihydroquinolin-3-yl)acetamide], the “Skeletal EC25” value in assay [1] (Y75 value (no ‡ mark)) was found to be 210 nM. Also, the “Atrial EC25” value in assay [2] (Y75 value (no ‡ mark)) turned out to be 140 nM. Also, the “Ventricular EC25” value in assay [3] (Y75 value (no ‡ mark)) turned out to be 190 nM. Further, the change in vivo at 10 mg/kg in the assay on SD rats (setting [5]) is 1 to 20%; in the assay on SD rats (setting [6]), 21 to 40%; in the assay on SD rats (setting [7]), 21 to 40%; in the assay on SD rats (setting [8]), 1 to 10%.
